{
  "source": "patent US20120121540A1",
  "about": "(priority 2007, published 2012)",
  "data": [
    {"test": "HCV replicon assay (luciferase reporter, ET cell line)", "assay_type": "cell-based", "conditions": "Hepatitis C virus, HCV replicon luciferase activity in ET cells", "how_it_was_run": "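ET cells carry a stable luciferase-ubiquitin-neo/NS3-5B subgenomic HCV replicon with adaptive mutations. Compounds (0.1 nM to […], 0.5% DMSO) were added 24 h after plating, and luciferase was read 48-72 h later. EC50 came from 10-point 2-fold dilutions fitted to a Hill equation; TC50 was measured in parallel by WST-1.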", "units": {"inhibition at 10 µM": "%"}, "values": [
      {"smiles": "Cn1cc(-c2cc(C(F)(F)F)c3nc(C(=O)N4CCC(c5cccc(F)c5)C4)c(Cl)n3c2)cn1", "note": "(stereo not drawn) [Compound 624, [3-Chloro-6-(1-methyl-1H-pyrazol-4-yl)-8-trifluoromethyl-imidazo[1,2-a]pyridin-2-yl]-[3-(3-fluoro-phenyl)-pyrrolidin-1-yl]-methanone]", "inhibition at 10 µM": 63.9},
      {"smiles": "CCn1c(C(=O)N2CCC(c3ccc(F)cc3)C2)nc2cc(-c3ccoc3)cc(C(F)(F)F)c21", "note": "(stereo not drawn) [Compound 353, (1-Ethyl-5-furan-3-yl-7-trifluoromethyl-1H-benzoimidazol-2-yl)-[3-(4-fluoro-phenyl)-pyrrolidin-1-yl]-methanone]", "inhibition at 10 µM": 3.5},
      {"smiles": "O=C(CNC(=O)c1nc2c(C(F)(F)F)cc(-c3ccoc3)cn2c1Cl)c1cccc(F)c1", "note": "[Compound 409, 3-Chloro-6-furan-3-yl-8-trifluoromethyl-imidazo[1,2-a]pyridine-2-carboxylic Acid[2-(3-fluoro-phenyl)-2-oxo-ethyl]-amide]", "inhibition at 10 µM": 46.6},
      {"smiles": "O=C(c1cn2cc(-c3cn[nH]c3)cc(C(F)(F)F)c2n1)N1CC=C(c2nccs2)CC1", "note": "[Compound 612, [6-(1H-pyrazol-4-yl)-8-(trifluoromethyl)imidazo[1,2-a]pyridin-2-yl][4-(1,3-thiazol-2-yl)-3,6-dihydropyridin-1(2H)-yl]methanone]", "inhibition at 10 µM": 59.3},
      {"smiles": "O=C(NCc1ccoc1)c1nc2c(C(F)(F)F)cc(-c3ccco3)cn2c1Cl", "note": "[Compound 159, 3-Chloro-6-furan-2-yl-8-trifluoromethyl-imidazo[1,2-a]pyridine-2-carboxylic acid (furan-3-ylmethyl)-amide]", "inhibition at 10 µM": 94.8},
      {"smiles": "CC(=O)Nc1nc(-c2cc(C(F)(F)F)c3nc(C(=O)N4CCC(c5cccc(F)c5)C4)c(Cl)n3c2)cs1", "note": "(stereo not drawn) [Compound 644, N-(4-{3-Chloro-2-[3-(3-fluoro-phenyl)-pyrrolidine-1-carbonyl]-8-trifluoromethyl-imidazo[1,2-a]pyridin-6-yl}-thiazol-2-yl)-acetamide]", "inhibition at 10 µM": 59.6},
      {"smiles": "O=C(NCc1ccc(F)cc1)c1nc2c(C(F)(F)F)cc(-c3ccoc3)cn2c1Cl", "note": "[Compound 404]", "inhibition at 10 µM": 83.9},
      {"smiles": "O=C(NCCc1cccc(F)c1)c1nc2c(C(F)(F)F)cc(-c3ccoc3)cn2c1Cl", "note": "[Compound 406, 3-Chloro-6-furan-3-yl-8-trifluoromethyl-imidazo[1,2-a]-pyridine-2-carboxylic acid [2-(3-fluoro-phenyl)-ethyl]-amide]", "inhibition at 10 µM": 82.5},
      {"smiles": "CN(C)CCNC(=O)[C@H]1[C@@H](c2ccccc2)CCN1C(=O)c1nc2c(C(F)(F)F)cc(-c3ccoc3)cn2c1Cl", "note": "(stereo in doubt) [Compound 230, 1-(3-Chloro-6-furan-3-yl-8-trifluoromethyl-imidazo[1,2-a]pyridine-2-carbonyl)-3-phenyl-pyrrolidine-2-carboxylic Acid (2-dimethylamino-ethyl)-amide]", "inhibition at 10 µM": 53.4},
      {"smiles": "O=C(c1nc2c(C(F)(F)F)cc(-c3ccccc3)cn2c1Br)N1CCC(c2cccc(F)c2)C1", "note": "(stereo not drawn) [Compound 640, (3-Bromo-6-phenyl-8-trifluoromethyl-imidazo[1,2-a]pyridin-2-yl)-[3-(3-fluoro-phenyl)-pyrrolidin-1-yl]-methanone]", "inhibition at 10 µM": 88.1},
      {"smiles": "O=C(c1nc2c(C(F)(F)F)cc(-c3ccoc3)cn2c1Cl)N1CC=C(c2ccc(F)cc2)CC1", "note": "[Compound 595, (3-Chloro-6-furan-3-yl-8-trifluoromethyl-imidazo[1,2-a]pyridin-2-yl)-[4-(4-fluoro-phenyl)-3,6-dihydro-2H-pyridin-1-yl]-methanone]", "inhibition at 10 µM": 77.2},
      {"smiles": "O=C(c1nc2c(C(F)(F)F)cc(-c3cn[nH]c3)cn2c1Br)N1CCC(c2nccs2)CC1", "note": "[Compound 611, [3-Bromo-6-(1H-pyrazol-4-yl)-8-trifluoromethyl-imidazo[1,2-a]pyridin-2-yl]-(4-thiazol-2-yl-piperidin-1-yl)-methanone]", "inhibition at 10 µM": 92.4},
      {"smiles": "O=C(NC1CN(C(=O)Cc2ccccc2)C1)c1nc2c(C(F)(F)F)cc(-c3ccoc3)cn2c1Cl", "note": "[Compound 514, 3-Chloro-6-furan-3-yl-8-trifluoromethyl-imidazo[1,2-a]pyridine-2-carboxylic Acid (1-phenylacetyl-azetidin-3-yl)-amide]", "inhibition at 10 µM": 6.6},
      {"smiles": "O=C(c1nc2c(C(F)(F)F)cc(-c3cc[nH]c3)cn2c1Cl)N1CCC(c2cccc(F)c2)C1", "note": "(stereo not drawn) [Compound 524, [3-Chloro-6-(1H-pyrrol-3-yl)-8-trifluoromethyl-imidazo[1,2-a]pyridin-2-yl]-[3-(3-fluoro-phenyl)-pyrrolidin-1-yl]methanone]", "inhibition at 10 µM": 91},
      {"smiles": "O=C(c1nc2c(C(F)(F)F)cc(-c3cn[nH]c3)cn2c1Cl)N1CCC(c2ccccc2F)CC1", "note": "[Compound 606, [3-Chloro-6-(1H-pyrazol-4-yl)-8-trifluoromethyl-imidaz [1,2-a]pyridin-2-yl]-[4-(2-fluoro-phenyl)-piperidin-1-yl]-methanone]", "inhibition at 10 µM": 87.9},
      {"smiles": "O=C(NCc1cccs1)c1nc2c(C(F)(F)F)cc(-c3ccoc3)cn2c1Cl", "note": "[Compound 157, 3-Chloro-6-furan-3-yl-8-trifluoromethyl-imidazo[1,2-a]pyridine-2-carboxylic acid (thiophen-2-ylmethyl)-amide]", "inhibition at 10 µM": 97.8},
      {"smiles": "O=C(NCc1cccs1)c1cc2cc(-c3cn[nH]c3)cc(Cl)c2[nH]1", "note": "[Compound 347, 7-Chloro-5-(1H-pyrazol-4-yl)-1H-indole-2-carboxylic Acid (thiophen-2-ylmethyl)-amide]", "inhibition at 10 µM": 0.1},
      {"smiles": "O=C(c1nc2c(C(F)(F)F)cc(-c3ccoc3)cn2c1Cl)N1CC[C@@H](c2ccccc2)C1", "note": "[Compound 262, (3-Chloro-6-furan-3-yl-8-trifluoromethyl-imidazo[1,2-a]pyridin-2-yl)-(3-(S)-phenyl-pyrrolidin-1-yl)-methanone]", "inhibition at 10 µM": 97.3},
      {"smiles": "O=C(c1nc2c(C(F)(F)F)cc(-c3ccoc3)cn2c1Cl)N1CCC(N2CCCCC2)C1", "note": "(stereo not drawn) [Compound 340, (3-Chloro-6-furan-3-yl-8-trifluoromethyl-imidazo[1,2-a]pyridin-2-yl)-(3-piperidin-1-yl-pyrrolidin-1-yl)-methanone]", "inhibition at 10 µM": 65.6},
      {"smiles": "FC(F)(F)c1cc(-c2ccoc2)cn2cc(-c3cc(-c4ccccc4)no3)nc12", "note": "[Compound 654, 6-Furan-3-yl-2-(3-phenyl-isoxazol-5-yl)-8-trifluoromethyl-imidazo[1,2-a]pyridine]", "inhibition at 10 µM": 20.4},
      {"smiles": "O=C(NCc1cn2cc(-c3ccoc3)cc(C(F)(F)F)c2n1)NCc1ccccc1F", "note": "[Compound 399, 1-(2-Fluoro-benzyl)-3-(6-furan-3-yl-8-trifluoromethyl-imidazo[1,2-a]pyridine-2-ylmethyl)-urea]", "inhibition at 10 µM": 37.7},
      {"smiles": "O=C(c1nc2c(C(F)(F)F)cc(-c3ccoc3)cn2c1Cl)N1CC=C(c2ccoc2)CC1", "note": "[Compound 575, (3-Chloro-6-furan-3-yl-8-trifluoromethyl-imidazo[1,2-a]pyridine-2-yl)-(4-furan-3-yl-3,6-dihydro-2H-pyridin-1-yl)-methanone]", "inhibition at 10 µM": 94.3},
      {"smiles": "COc1cc(-c2ccccc2)cc2cc(C(=O)NCc3cccs3)nn12", "note": "[Compound 117, 7-Methoxy-5-phenyl-pyrazolo[1,5-a]pyridine-2-carboxylic Acid (thiophen-2-ylmethyl)-amide]", "inhibition at 10 µM": 25.8},
      {"smiles": "O=C(c1nc2c(C(F)(F)F)cc(-c3ccco3)cn2c1Cl)N1CCCC1c1ccc(F)cc1", "note": "(stereo not drawn) [Compound 329, (3-Chloro-6-furan-2-yl-8-trifluoromethyl-imidazo[1,2-a]pyridin-2-yl)-[2-(4-fluoro-phenyl)-pyrrolidin-1-yl]-methanone]", "inhibition at 10 µM": 97.6}
    ]}
  ]
}
